Where two headings read alike, the source gives them in different places.
Experiments:
BT474 cells = experiment: Western blot in breast cancer cells; assay type: cell-based, human; details: BT474, 24 hours
Method: (§1) Human ductal breast carcinoma cells (BT474) and human prostate adenocarcinoma cells (PC-3) were purchased from the ATCC (Bethesda, Md., USA) and were cultured in RPMI 1640 medium (Life Technologies, Germany) supplemented with 10% (v/v) fetal calf serum (FCS; Biochrom, Berlin, Germany) and maintained in a humidified incubator at 37° C. and 5% CO2 (C200, Labotect Incubator, Göttingen, Germany).
(§2) BT474 and PC-3 cells were lysed for 10 min at 95° C. in 62.5 mM Tris-HCl (pH 6.8), 2% (w/v) SDS, 10% (v/v) glycerol, 80 mM DTT, and 0.01% (w/v) bromophenol blue (350.000 cells per 100 μL lysis buffer). Proteins were separated by SDS-PAGE and blotted onto PVDF-membranes (Roth, Karlsruhe, Germany) using Fastblot according to manufacturer's manual (B44, Biometra, Goettingen, Germany). After blocking with 5% (w/v) nonfat dry milk membranes were incubated at 4° C. over night with the respective primary antibody (1:20.000 for β-actin, 1:1000 for all other antibodies). After washing, the membranes were incubated for 1 h at room temperature with the secondary antibody (anti-IgG-HRP 1:2000, CST, Frankfurt, Germany) washed again and monitored by chemiluminescence imaging using FUSION Solo (peqlab, Erlangen, Germany) and appropriate ECL Prime Western blotting detection reagent according to the manufacturer's protocol (GE Healthcare/Amersham-Biosciences, Freiburg, Germany). […]

PC3 cells = experiment: Western blot in prostate cancer cells; assay type: cell-based, human; details: PC3, 24 hours
Method: as §1, §2

[1] = Pharmacokinetic profiling in mice (plasma, LC-MS/MS); details: for bioavailability: CD1, mouse, in vivo
Method: EDTA was added to plasma in order to prevent blood from coagulation. The compound concentrations in the particular plasma samples were determined by LC-MS/MS, as follows:
Samples and blanks were prepared by adding 2.5 μL blank DMSO and 80 μL of ice-cold acetonitrile containing the internal standard (Griseofulvin, 1 μM) to 20 μl plasma followed by centrifugation at 13000 rpm (4° C.) for 10 min. 65 μL of the supernatant were diluted with 65 μL of LC-MS grade water. Samples were filtered (Millipore MSRLN0450 hydrophil) and subjected to LC-MS measurement. […] 2.5 μL of the corresponding DMSO stock solution were added to 20 μL of blank plasma followed by the addition of 80 μL of ice-cold acetonitrile containing the internal-standard. The samples were centrifuged for 10 min and 4° C. at 13000 rpm. 65 μL of the supernatant were diluted with 65 μL of LC-MS grade water and subjected to LC-MS analysis. A set of 3 different QCs (n=3) was prepared by adding of 2.5 μL DMSO stock solution (5, 0.5 and 0.05 μM) to 20 μL of plasma. Samples were subsequently handled as described above. All samples were analyzed using a Shimadzu LC20ADXR Solvent Delivery Unit, a Shimadzu SIL30ACMP autosampler and a ABSciex Qtrap5500 LC-MS/MS system. Therefore, 2 μL of sample were injected and separated using an Agilent Poroshell C18, 2.7 μm column (2.1 mm×50 mm) at 60° C. starting at 5% of solvent B for 0.3 min followed by a gradient up to 100% of solvent B over 0.6 min (flow rate 1 mL/min) with 0.1% formic acid in water as solvent A and 0.1% formic acid in acetonitrile as solvent B. Data evaluation was performed using Analyst 1.6.2 Software (Sciex).

MAP4K5 = MAP4K5 (Homo sapiens (Human), UniProt Q9Y4K4); experiment: Z'LYTE kinase assay, SelectScreen panel; assay type: biochemical; details: 1 μM compound, apparent ATP KM
[2] = Maximum tolerated dose in mice; details: RjOrl:SWISS, mouse, in vivo, ip, PBS/PEG200 (60:40)
GIST-T1 cells = experiment: Western blot in gastrointestinal stromal tumor cells; assay type: cell-based, human; details: GIST-T1, 24 hours
Method: For GIST-T1 cells protein lysates were prepared from cell line monolayers according to standard protocols as described in A. Duensing, F. Medeiros, B. McConarty, N. E. Joseph, D. Panigrahy, S. Singer, C. […] Protein concentrations were determined with the Bio-Rad Protein Assay (Bio-Rad Laboratories, Hercules, Calif.). Electrophoresis and immunoblotting were carried out as described in B. P. Rubin, S. Singer, C. Tsao, A. Duensing, M. L. Lux, R. Ruiz, M. K. Hibbard, C. J. Chen, S. Xiao, D. A. Tuveson, G. D. Demetri, C.
Controls were treated with dimethyl sulfoxide (DMSO).

[3] = biological target: T1, activated full-length wtAkt1 (Homo sapiens (Human), UniProt P31749); experiment: Activity-based (HTRF) assay, manual dilution series; details: for higher concentration required for half-maximum inhibition of Akt1 versus alkenyl counterpart: 1b vs 1a, 2b vs 2a
Excerpt: OriginPro 9.1G software (OriginLab Corporation, Northhampton, Mass.) was used for data analysis and data was fit to a sigmoidal dose-response model using the following four-parameter logistic equation:
(§5) The potential influence of the reactive alkenyl group functioning as a Michael acceptor was further evaluated and the inhibitory potencies further assessed in activity-based studies utilizing activated full-length wtAkt1 (Millipore).

[4] = biological target: fluorescently labeled full-length Akt1 (Homo sapiens (Human), UniProt P31749, C296S/C310S/C344S/E49C); experiment: iFLiK binding analysis; details: fluorophore-labeled Akt1 200 nM; n.r. = no response up to 100 μM
Method: Afterwards they were cloned into pREN4427-HIS-DEST vector and introduced into a baculovirus using the BacMagic Kit (Calbiochem) in Sf9 cells (Invitrogen). Protein expression, purification and labeling was performed according to standard protocols.
The final concentration of fluorophore-labeled recombinant Akt1 was 200 nM.

[5] = biological target: T1, activated full-length wtAkt1; experiment: Time-dependent activity-based screening; assay type: biochemical; details: incubation 10, 30, 60 or 300 minutes
Full-length wtAkt1 = Full-length wtAkt1 (Homo sapiens (Human), UniProt P31749); experiment: ESI-MS/MS analysis after tryptic digest; assay type: binding; details: 2-fold molar excess
Method: Protoc. […] 3 μL of sample were loaded onto a pre-column cartridge and desalted for 5 min using 0.1% TFA in water as eluent at a flow rate of 30 μL/min. The samples were back-flushed from the pre-column to the nano-HPLC column during the whole analysis. […] During the complete gradient cycle, a typical TOP10 shot-gun proteomics method for the MS and MS/MS analysis was used. […] Biotechnol.

wild-type Akt1 [6] = biological target: T2, wild-type Akt1 (Homo sapiens (Human), UniProt P31749); experiment: ESI-MS of compound-treated Akt1; assay type: binding; details: 2 molar equivalents, thirty minutes on ice, vs DMSO control
Method: Purified full-length wtAkt1 was thawed under cold water and diluted to a final concentration of 1 mg/mL in storage buffer (50 mM HEPES, 200 mM NaCl, 10% Glycerol, pH 7.4). […] Following incubation for thirty minutes on ice, the samples were analyzed by ESI-MS using an Agilent 1100 Series HPLC System connected to a ThermoFinnigan LTQ Linear Ion Trap mass spectrometer. […] During the complete experiment, a mass range of 700 to 2000 m/z was scanned and raw data was deconvoluted and analyzed with MagTran and mMass (Version 5.5.0) software.

[7] = biological target: T1, activated full-length wtAkt1; experiment: Kinetic characterization by determination of kinact/Ki (time-dependent IC50); assay type: biochemical; details: incubation 1 to 120 minutes; manual dilution series
Method: (§3) Time-dependent IC50 measurements were performed with activated full-length Akt1 as described under “Biochemical assays”. Briefly, IC50 values were determined for twelve different incubation times and afterwards plotted versus accordingly. Data was analyzed according to literature procedure as described in B. F. Krippendorff, R. Neuhaus, P. Lienau, A. Reichel, W. Huisinga, J. Biomol. Screen.
(§4) Calculated IC50 values were plotted versus the incubation time and data was fit as described in the literature to determine kinact and Ki as described above.

[8] = biological target: activated full-length Akt1 (Homo sapiens (Human), UniProt P31749); experiment: Kinetic parameters (Ki, kinact), ECHO520 dilution series; assay type: biochemical; details: for kinact/KI: ECHO520
Method: as §3, §4

Akt1_E17K = Akt1_E17K (Homo sapiens (Human), UniProt P31749, E17K); experiment: Activity-based assay, ECHO520 dilution series; assay type: biochemical; details: mutant Akt1_E17K
Excerpt: as §5

wild-type Akt1 [9] = biological target: T2, wild-type Akt1; experiment: Activity-based assay, ECHO520 dilution series; assay type: biochemical
Excerpt: as §5

[10] = activated full-length wtAkt1, 120 pM, manual dilution series

T2 sequence (P31749 whole entry): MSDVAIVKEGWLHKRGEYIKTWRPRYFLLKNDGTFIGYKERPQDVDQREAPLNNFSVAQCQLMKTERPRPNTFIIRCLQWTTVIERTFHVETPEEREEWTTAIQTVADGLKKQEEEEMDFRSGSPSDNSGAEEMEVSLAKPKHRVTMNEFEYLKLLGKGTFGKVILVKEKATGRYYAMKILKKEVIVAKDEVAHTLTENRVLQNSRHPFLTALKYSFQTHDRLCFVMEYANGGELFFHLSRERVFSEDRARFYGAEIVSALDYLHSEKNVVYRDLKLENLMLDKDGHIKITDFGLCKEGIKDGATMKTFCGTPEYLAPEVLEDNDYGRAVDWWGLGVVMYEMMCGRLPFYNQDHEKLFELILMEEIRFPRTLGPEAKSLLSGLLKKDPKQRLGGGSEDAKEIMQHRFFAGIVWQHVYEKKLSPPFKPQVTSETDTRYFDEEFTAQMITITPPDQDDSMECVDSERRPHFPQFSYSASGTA
Sequence of activated full-length Akt1 (P31749 whole entry): as above
T1 sequence (P31749 whole entry): as above
Sequence of fluorescently labeled full-length Akt1 (P31749 whole entry E49C/C296S/C310S/C344S): as the sequence (P31749 whole entry) above, with E49C, C296S, C310S, C344S counted along it
Sequence of Akt1_E17K (P31749 whole entry E17K): as the sequence (P31749 whole entry) above, with E17K counted along it
Sequence of Full-length wtAkt1 (P31749 whole entry): as the sequence (P31749 whole entry) above
Sequence of MAP4K5 (Q9Y4K4 whole entry): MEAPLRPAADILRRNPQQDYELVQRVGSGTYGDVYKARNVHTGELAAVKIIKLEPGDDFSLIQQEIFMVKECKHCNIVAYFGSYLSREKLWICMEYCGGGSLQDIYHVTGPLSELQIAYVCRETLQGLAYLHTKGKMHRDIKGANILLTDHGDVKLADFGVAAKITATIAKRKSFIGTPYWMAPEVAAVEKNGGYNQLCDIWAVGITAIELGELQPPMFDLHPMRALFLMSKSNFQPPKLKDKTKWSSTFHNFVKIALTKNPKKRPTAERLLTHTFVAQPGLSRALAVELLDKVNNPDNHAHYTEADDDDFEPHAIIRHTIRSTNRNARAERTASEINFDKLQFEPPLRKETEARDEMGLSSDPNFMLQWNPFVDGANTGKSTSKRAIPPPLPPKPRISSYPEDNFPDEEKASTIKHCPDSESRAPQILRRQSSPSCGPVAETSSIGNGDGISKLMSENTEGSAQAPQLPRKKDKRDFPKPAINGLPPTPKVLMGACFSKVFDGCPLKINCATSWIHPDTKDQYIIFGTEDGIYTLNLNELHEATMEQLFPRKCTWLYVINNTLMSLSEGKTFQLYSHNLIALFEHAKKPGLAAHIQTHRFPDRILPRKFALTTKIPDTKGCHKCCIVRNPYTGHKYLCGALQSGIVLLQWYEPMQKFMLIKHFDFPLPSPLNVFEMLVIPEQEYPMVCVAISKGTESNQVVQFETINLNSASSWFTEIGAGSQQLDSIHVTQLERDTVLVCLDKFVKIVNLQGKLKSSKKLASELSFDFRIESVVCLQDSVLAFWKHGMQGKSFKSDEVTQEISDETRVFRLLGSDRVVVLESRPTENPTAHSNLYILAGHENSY

With `C=CC(=O)Nc1ccc2[nH]c(=O)n(C3CCN(Cc4ccc(-c5nc6cc[nH]c(=O)c6cc5-c5ccccc5)cc4)CC3)c2c1` [Compound 1a, N-(2-oxo-3-(1-(4-(5-oxo-3-phenyl-5,6-dihydro-1,6-naphthyridin-2-yl)benzyl)piperidin-4-yl)-2,3-dihydro-1H-benzo[d]imidazol-5-yl) acrylamide] the “phosphorylation of Akt1 substrate GSK3β” value (BT474 cells) was “decreased phosphorylation”, the “pAkt1 (Thr308 and Ser473) level” value (BT474 cells; 0.01-10 μM) was “dose-dependent decreases of pAkt1” and the “phosphorylation of Akt1 substrate GSK3β” value (PC3 cells) was “decreased phosphorylation”. The “pAkt1 (Thr308 and Ser473) level” value (PC3 cells; 0.01-10 μM) was “dose-dependent decreases of pAkt1”, the bioavailability ([1]; ip, 20 mg/kg) was 47.7% and the bioavailability ([1]; po, 20 mg/kg) was 10.8%. The maximum plasma concentration ([1]; i.p., 20 mg/kg) was 1.15 µM, the “time of maximum plasma concentration” value ([1]; i.p., 20 mg/kg) was 45 min and the maximum plasma concentration ([1]; i.v., 2 mg/kg) was 1.05 µM. The “time of maximum plasma concentration” value ([1]; i.v., 2 mg/kg) was “immediately after injection”, the maximum plasma concentration ([1]; p.o., 20 mg/kg) was 0.62 µM and the “time of maximum plasma concentration” value ([1]; p.o., 20 mg/kg) was 15 min. The inhibition at 1 µM (MAP4K5) was 37%, the MTD [2] was 20 mg/kg and the “phosphorylation of downstream targets S6 and 4EBP1” value (GIST-T1 cells) was “decreasing phosphorylation”. For the same molecule, the “cellular pAkt1 levels” value (GIST-T1 cells; 0.001-0.1 μM) was “reduces cellular pAkt1 levels at low nanomolar concentrations”.

For `CCC(=O)Nc1ccc2[nH]c(=O)n(C3CCN(Cc4ccc(-c5nc6cc[nH]c(=O)c6cc5-c5ccccc5)cc4)CC3)c2c1` [Compound 1b, N-(2-OXO-3-(1-(4-(5-OXO-3-PHENYL-5,6-DIHYDRO-1,6-NAPHTHYRIDIN-2-YL)BENZYL)PIPERIDIN-4-YL)-2,3-DIHYDRO-1H-BENZO[D]IMIDAZOL-5-YL) PROPIONAMIDE], the “higher concentration required for half-maximum inhibition of Akt1 versus alkenyl counterpart” value [3] was 10 fold, the IC50 [3, 10] was 7.5 ± 2 nM and the Kd [4] was 62 ± 12 nM. The “time dependence of dose-response curves” value [5] was “No differences were observed”.

With `C=CC(=O)Nc1cccc(-c2cn(C3CCN(Cc4ccc(-c5nc6ccccn6c5-c5ccccc5)cc4)CC3)nn2)c1` [Compound 2a, N-[3-(1-{1-[4-(3-Phenylimidazo[1,2-a]pyridin-2-yl)benzyl]piperidin-4-yl}-1H-1,2,3-triazol-4-yl)phenyl]acrylamide] the covalently modified residues (Full-length wtAkt1) was “covalently bind to Akt1 at Cys296 and Cys310”, the IC50 [3] was 372 ± 48 nM and the IC50 [3, 10] was 372 ± 48 nM. For the same molecule, the “mass increase of Akt1 (single labeled)” value (wild-type Akt1 [6]) was 572 Da, the Kd [4] was 795 ± 176 nM and the kinact/KI [7] was 2300 ± 300 M⁻¹ s⁻¹.

For `CCC(=O)Nc1cccc(-c2cn(C3CCN(Cc4ccc(-c5nc6ccccn6c5-c5ccccc5)cc4)CC3)nn2)c1` [Compound 2b, N-[3-(1-{1-[4-(3-Phenylimidazo[1,2-a]pyridin-2-yl)benzyl]piperidin-4-yl}-1H-1,2,3-triazol-4-yl)phenyl]propionamide], the IC50 [3] was 992 ± 328 nM, the “higher concentration required for half-maximum inhibition of Akt1 versus alkenyl counterpart” value [3] was 4 fold and the Kd [4] was 797 ± 180 nM.

`CCC(=O)Nc1cccc(C(=O)NC2CCN(Cc3ccc(-c4nc5cc[nH]c(=O)c5cc4-c4ccccc4)cc3)CC2)c1` [Compound 27] showed an IC50 [3, 10] of 18.2 ± 13.3 nM and a Kd [4] of 79 ± 21 nM.

Molecule `CN(C)C/C=C/C(=O)Nc1ccc2[nH]c(=O)n(C3CCN(Cc4ccc(-c5nc6cc[nH]c(=O)c6cc5-c5ccccc5)cc4)CC3)c2c1` [Compound 36] has a kinact [8] of 0.00102 s⁻¹ and a kinact/KI [8] of 51000 ± 10000 M⁻¹ s⁻¹.

With `N#C/C(=C\C1CC1)C(=O)Nc1cccc(C(=O)NC2CCN(Cc3ccc(-c4nc5cc[nH]c(=O)c5cc4-c4ccccc4)cc3)CC2)c1` [Compound 45] the kinact [8] was 0.00182 s⁻¹ and the kinact/KI [8] was 41000 ± 9000 M⁻¹ s⁻¹.

With `C=CC(=O)Nc1ccc2c(c1)n(C1CCN(Cc3ccc(-c4nc5cc[nH]c(=O)c5cc4-c4ccccc4)cc3)CC1)c(=O)n2C` [Compound 46] the Ki [8] was 1 to 18.9 nM, the kinact [8] was 0.00202 s⁻¹ and the kinact/KI [8] was 190000 ± 25000 M⁻¹ s⁻¹.

Work on `C=CC(=O)Nc1ccc(C(=O)NC2CCN(Cc3ccc(-c4nc5cc[nH]c(=O)c5cc4-c4ccccc4)cc3)CC2)c(F)c1` [Compound 47] yielded an IC50 (Akt1_E17K) of 2900 ± 137 nM and an IC50 (wild-type Akt1 [9]) of 21.3 ± 1.8 nM.

`C=CC(=O)Nc1ccc(C(=O)NC2CCN(Cc3ccc(-c4nc5cc[nH]c(=O)c5cc4-c4ccccc4)cc3)CC2)s1` [Compound 48] gave an IC50 (Akt1_E17K) of 397 ± 172 nM and an IC50 (wild-type Akt1 [9]) of 8.1 ± 0.4 nM.

For `NC1(c2ccc(-c3nc4ccn5c(=O)[nH]nc5c4cc3-c3ccccc3)cc2)CCC1` [MK-2206, reference compound], the “time dependence of dose-response curves” value [5] was “No differences were observed”.

Reference: patent US10550114B2, “Kinase inhibitors and their use in cancer therapy” (TECHNISCHE UNIVERSITÄT DORTMUND, priority 2015, dated 2020)
